Reference: article PMC10257182, “Discovery of senolytics using machine learning” (Nature Communications, 2023)
pIC50: −log10 of the molar value. Where “and” joins values, the source holds several entries; their conditions need not be identical. Equal entries are not always repeated. Where two headings read alike, the source gives them in different places. Blank lines part the entries; values can stand above or below the compound they belong to.

Assays:
Format in all cases: cell-based, human
[1] = system: senescent IMR90 ER:RAS cells (4-OHT-induced); experiment: Nuclei count (Hoechst, high content imaging) senolytic assay, oncogene-induced senescence (OIS) model, senescent cells; details: for viability at 4.677 µM: log (dose) [M] -5.33, 72 h; for viability at 1 µM: log (dose) [M] -6, 72 h; for viability at 0.2188 µM: log (dose) [M] -6.66, 72 h; for viability at 0.1 µM: log (dose) [M] -7, 72 h; for viability at 0.02188 µM: log (dose) [M] -7.66, 72 h; for senolytic activity (in words): experimental screen
Procedure, shortened: (§1)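 IMR90 ER:RAS (p14), ±4-OHT 100 nM; cpd 10 nM–10 μM, 10-pt […], 72 h, n=3. Fix formaldehyde, Triton X-100, Hoechst 2 μg/ml final. Readout: imaged nuclei count vs untreated; ouabain positive control.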

[2] = system: non-senescent control A549 cells; experiment: Nuclei count senolytic assay, TIS model, non-senescent control cells; details: for viability at 10 µM / viability at 4.68 µM / viability at 2.19 µM / viability at 1 µM / viability at 0.468 µM / viability at 0.219 µM / viability at 0.1 µM / viability at 0.0468 µM / viability at 0.0219 µM / viability at 0.01 µM: A549, Control cells, mean, read-out: Mean % Cell Survival; for % Cell Survival: control cells, single replicate
Procedure, shortened: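 Etoposide 100 μM, 48 h, + 3 d standard media → senescent A549; untreated A549 = controls. 24 h post-seeding, cpds 10 nM–10 μM final, 10-pt […], 72 h, n=3. Fix formaldehyde, permeabilise Triton-X100, Hoechst 2 μg/ml, image, count nuclei.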

[3] = system: non-senescent control IMR90 ER:RAS cells; experiment: Nuclei count (Hoechst, high content imaging) senolytic assay, OIS model, non-senescent control cells; details: Homo sapiens; for viability at 0.02188 µM: log (dose) [M] -7.66, 72 h
Procedure, shortened: as §1

[4] = Homo sapiens, IMR-90, 72 h, Senescent, log (dose) [M] -5, 72 h, mean n=3 (Fig 3C), read-out: Mean % Cell Survival
[5] = Homo sapiens, IMR-90, 72 h, Senescent, mean n=3 (Fig 3C), read-out: Mean % Cell Survival
[6] = Homo sapiens, IMR-90, 72 h, Senescent, log (dose) [M] -5.66, 72 h, mean n=3 (Fig 3C), read-out: Mean % Cell Survival
[7] = Homo sapiens, IMR-90, 72 h, Senescent, log (dose) [M] -6.33, 72 h, mean n=3 (Fig 3C), read-out: Mean % Cell Survival
[8] = Homo sapiens, IMR-90, 72 h, Senescent, log (dose) [M] -7.33, 72 h, mean n=3 (Fig 3C), read-out: Mean % Cell Survival
[9] = Homo sapiens, IMR-90, 72 h, Senescent, log (dose) [M] -8, 72 h, mean n=3 (Fig 3C), read-out: Mean % Cell Survival
[10] = Homo sapiens, log (dose) [M] -5
[11] = Homo sapiens, log (dose) [M] -5.33
[12] = Homo sapiens, log (dose) [M] -5.66
[13] = Homo sapiens, log (dose) [M] -6
[14] = Homo sapiens, log (dose) [M] -6.33
[15] = Homo sapiens, log (dose) [M] -6.66
[16] = Homo sapiens, log (dose) [M] -7
[17] = Homo sapiens, log (dose) [M] -7.33
[18] = Homo sapiens, log (dose) [M] -7.66
[19] = Homo sapiens, log (dose) [M] -8
[20] = IMR-90, 72 h, Control, log (dose) [M] -5, 72 h, mean n=3 (Fig 3C), read-out: Mean % Cell Survival
[21] = IMR-90, 72 h, Control, log (dose) [M] -5.33, 72 h, mean n=3 (Fig 3C), read-out: Mean % Cell Survival
[22] = IMR-90, 72 h, Control, log (dose) [M] -5.66, 72 h, mean n=3 (Fig 3C), read-out: Mean % Cell Survival
[23] = IMR-90, 72 h, Control, log (dose) [M] -6, 72 h, mean n=3 (Fig 3C), read-out: Mean % Cell Survival
[24] = IMR-90, 72 h, Control, log (dose) [M] -6.33, 72 h, mean n=3 (Fig 3C), read-out: Mean % Cell Survival
[25] = IMR-90, 72 h, Control, log (dose) [M] -6.66, 72 h, mean n=3 (Fig 3C), read-out: Mean % Cell Survival
[26] = IMR-90, 72 h, Control, log (dose) [M] -7, 72 h, mean n=3 (Fig 3C), read-out: Mean % Cell Survival
[27] = IMR-90, 72 h, Control, log (dose) [M] -7.33, 72 h, mean n=3 (Fig 3C), read-out: Mean % Cell Survival
[28] = IMR-90, 72 h, Control, mean n=3 (Fig 3C), read-out: Mean % Cell Survival
[29] = IMR-90, 72 h, Control, log (dose) [M] -8, 72 h, mean n=3 (Fig 3C), read-out: Mean % Cell Survival

Compound: COc1cc(/C=C/C(=O)O[C@H]2CC[C@]34C[C@]35CC[C@]3(C)[C@@H]([C@H](C)CCC=C(C)C)CC[C@@]3(C)[C@@H]5CC[C@H]4C2(C)C)ccc1O [Gamma oryzanol, gamma oryzanol]
viability at 10 µM [1, 4]: 145%
viability at 4.677 µM [1, 5]: 134%
viability at 2.188 µM [1, 6]: 135%
viability at 1 µM [1, 5]: 139%
viability at 0.4677 µM [1, 7]: 141%
viability at 0.2188 µM [1, 5]: 142%
viability at 0.1 µM [1, 5]: 132%
viability at 0.04677 µM [1, 8]: 151%
viability at 0.02188 µM [1, 5]: 154%
viability at 0.01 µM [1, 9]: 125%
viability at 10 µM ([1]; Homo sapiens, IMR-90, Senescent cells, log (dose) [M] -5, individual replicates, SUP FIG 4C, read-out: % Cell Survival): 150%
viability at 2.188 µM ([1]; Homo sapiens, IMR-90, Senescent cells, log (dose) [M] -5.66, individual replicates, SUP FIG 4C, read-out: % Cell Survival): 137%
viability at 0.4677 µM ([1]; Homo sapiens, IMR-90, Senescent cells, log (dose) [M] -6.33, individual replicates, SUP FIG 4C, read-out: % Cell Survival): 153%
viability at 0.01 µM ([1]; Homo sapiens, IMR-90, Senescent, log (dose) [M] -8, read-out: % Cell Survival): 81.6%
senolytic activity (in words) ([1]; OIS IMR90 ER:RAS): inactive
viability at 10 µM [2, 10]: 37.8%
viability at 4.68 µM [2, 11]: 35%
viability at 2.19 µM [2, 12]: 87.4%
viability at 1 µM [2, 13]: 76.1%
viability at 0.468 µM [2, 14]: 75.3%
viability at 0.219 µM [2, 15]: 109%
viability at 0.1 µM [2, 16]: 105%
viability at 0.0468 µM [2, 17]: 103%
viability at 0.0219 µM [2, 18]: 106%
viability at 0.01 µM [2, 19]: 103%
viability at 10 µM [3, 20]: 87.1%
viability at 4.677 µM [3, 21]: 92.9%
viability at 2.188 µM [3, 22]: 89.6%
viability at 1 µM [3, 23]: 86.2%
viability at 0.4677 µM [3, 24]: 98.4%
viability at 0.2188 µM [3, 25]: 99.1%
viability at 0.1 µM [3, 26]: 109%
viability at 0.04677 µM [3, 27]: 133%
viability at 0.02188 µM [3, 28]: 118%
viability at 0.01 µM [3, 29]: 115%
viability at 0.2188 µM ([3]; IMR-90, Control cells, log (dose) [M] -6.66, individual replicates, SUP FIG 4C, read-out: % Cell Survival): 93.2%
viability at 10 µM ([3]; IMR-90, Control, log (dose) [M] -5, read-out: % Cell Survival): 113%
viability at 4.68 µM ([3]; IMR-90, Control, log (dose) [M] -5.33, read-out: % Cell Survival): 105%
viability at 0.1 µM ([3]; IMR-90, Control, log (dose) [M] -7, read-out: % Cell Survival): 103%
viability at 0.04677 µM ([3]; IMR-90, Control, log (dose) [M] -7.33, read-out: % Cell Survival): 103%
viability at 0.0219 µM ([3]; IMR-90, Control, log (dose) [M] -7.66, read-out: % Cell Survival): 104%
viability at 0.01 µM ([3]; IMR-90, Control, log (dose) [M] -8, read-out: % Cell Survival): 100%

pIC50 ([1]; Homo sapiens, IMR-90, OIS model, 4-OHT-induced IMR90 ER:RAS, nuclei count, 72 h): 5.59
pIC50 ([2]; Homo sapiens, TIS model, non-senescent A549, nuclei count, 72 h): 4.98
pIC50 ([3]; IMR-90, OIS model, non-senescent IMR90 ER:RAS, nuclei count, 72 h): 4.59
Compound: COc1cc(O)c2c(=O)cc(-c3ccc(OC)c(-c4c(O)cc(O)c5c(=O)cc(-c6ccc(O)cc6)oc45)c3)oc2c1 [Ginkgetin, ginkgetin]
viability at 10 µM [1, 4]: 5.11%
viability at 4.677 µM [1, 5]: 9.69%
viability at 2.188 µM [1, 6]: 80%
viability at 1 µM [1, 5]: 93.5%
viability at 0.4677 µM [1, 7]: 108%
viability at 0.2188 µM [1, 5]: 95.6%
viability at 0.1 µM [1, 5]: 105%
viability at 0.04677 µM [1, 8]: 113%
viability at 0.02188 µM [1, 5]: 105%
viability at 0.01 µM [1, 9]: 110%
viability at 10 µM ([1]; Homo sapiens, IMR-90, senescence, log (dose) [M] -5, individual replicates (Fig 3D), read-out: % Cell Survival): 4.7%
viability at 2.188 µM ([1]; Homo sapiens, IMR-90, senescence, log (dose) [M] -5.66, individual replicates (Fig 3D), read-out: % Cell Survival): 71.2%
viability at 0.04677 µM ([1]; Homo sapiens, IMR-90, senescence, log (dose) [M] -7.33, individual replicates (Fig 3D), read-out: % Cell Survival): 116%
dose showing the clearest senolytic effect ([1]; OIS IMR90 ER:RAS, Hoechst nuclei count, marginal effect on normal cells): 4.6 µM
senolytic activity (in words) ([1]; OIS IMR90 ER:RAS): clear senolytic action
viability at 10 µM [2, 10]: 56.2%
viability at 4.68 µM [2, 11]: 65.7%
viability at 2.19 µM [2, 12]: 98.7%
viability at 1 µM [2, 13]: 85.7%
viability at 0.468 µM [2, 14]: 31.8%
viability at 0.219 µM [2, 15]: 96.2%
viability at 0.1 µM [2, 16]: 94%
viability at 0.0468 µM [2, 17]: 96.8%
viability at 0.0219 µM [2, 18]: 95.6%
viability at 0.01 µM [2, 19]: 68.4%
% Cell Survival ([2]; log (dose) [M] -5): 52.2043% and 59.0944% and 57.4435%
% Cell Survival ([2]; log (dose) [M] -5.33): 97.7607% and 99.3093%
% Cell Survival ([2]; log (dose) [M] -5.66): 91.6025% and 99.9233% and 104.599%
% Cell Survival ([2]; log (dose) [M] -6): 75.5773% and 89.4858% and 92.1278%
% Cell Survival ([2]; log (dose) [M] -6.33): 95.472%
% Cell Survival ([2]; log (dose) [M] -6.66): 87.9636% and 100.998% and 99.7662%
% Cell Survival ([2]; log (dose) [M] -7): 85.4444% and 99.693% and 96.7264%
% Cell Survival ([2]; log (dose) [M] -7.33): 92.3723% and 99.3093% and 98.675%
% Cell Survival ([2]; log (dose) [M] -7.66): 89.3632% and 102.916% and 94.4661%
% Cell Survival ([2]; log (dose) [M] -8): 103.761% and 101.325%
viability at 10 µM [3, 20]: 37.6%
viability at 4.677 µM [3, 21]: 87%
viability at 2.188 µM [3, 22]: 87.7%
viability at 1 µM [3, 23]: 87.1%
viability at 0.4677 µM [3, 24]: 85.5%
viability at 0.2188 µM [3, 25]: 86.2%
viability at 0.1 µM [3, 26]: 85.1%
viability at 0.04677 µM [3, 27]: 87.3%
viability at 0.02188 µM [3, 28]: 88.8%
viability at 0.01 µM [3, 29]: 93%
viability at 4.677 µM ([3]; IMR-90, control, log (dose) [M] -5.33, individual replicates (Fig 3D), read-out: % Cell Survival): 83%
viability at 2.188 µM ([3]; IMR-90, control, log (dose) [M] -5.66, individual replicates (Fig 3D), read-out: % Cell Survival): 83.6%
viability at 1 µM ([3]; IMR-90, control, log (dose) [M] -6, individual replicates (Fig 3D), read-out: % Cell Survival): 78.9%
viability at 0.4677 µM ([3]; IMR-90, control, log (dose) [M] -6.33, individual replicates (Fig 3D), read-out: % Cell Survival): 82.5%
viability at 0.2188 µM ([3]; IMR-90, control, log (dose) [M] -6.66, individual replicates (Fig 3D), read-out: % Cell Survival): 81.2%
viability at 0.1 µM ([3]; IMR-90, control, log (dose) [M] -7, individual replicates (Fig 3D), read-out: % Cell Survival): 74.3%
viability at 0.01 µM ([3]; IMR-90, control, log (dose) [M] -8, individual replicates (Fig 3D), read-out: % Cell Survival): 85.3%
